Measured values from patent US7632952B2, “Benzothiazoles and the use thereof as medicaments” (Aventis Pharma S.A., priority 2004, dated 2009).
Structures can show the parent of a compound that is named as a salt.

Experiments:
[1] = molecular target: CDK4/cyclin D1 (Homo sapiens, UniProt P11802); assay: CDK4/cyclin D1 Flashplate test in 96-well format; format: biochemical
Protocol: 2. CDK4/cyclin D1 Protocol:
Purification of the CDK4-HA/cyclin D1-(His)6 Complex by IMAC (Immobilized Metal Affinity Chromatography):
Two recombinant baculoviruses bearing the human sequences coding, respectively, for CDK4-HA (C-terminal fusion with the hemaglutinin tag) and for cyclin D1-(His)6 are used to coinfect insect Sf9 cells. Sixty hours after the start of the coinfection, the cells are harvested by centrifugation and then frozen at −20° C. until the time of use.
CDK4/cyclin D1 Flashplate Test in 96-Well Format
A test in 96-well “Flashplate” plates coated with streptavidin is used to evaluate the inhibition of the CDK4/cyclin D1 kinase complex by the products of the invention. To perform this test, the biotinylated peptide substrate, a fragment of the pRb protein (biotinyl-[…]-amide) is dissolved at a concentration of 2 mM in kinase buffer (HEPES/NaOH 50 mM, NaCl 1 mM, MgCl2 5 mM, pH 7.5) in order to constitute a stock solution stored at −20° C. in the form of 110 μl aliquots. On the day of the experiment, an aliquot of this solution is thawed and diluted in kinase buffer containing 1 mM of dithiothreitol, and added to the buffer extemporaneously, in order to obtain a final peptide concentration of 2.571 μM. 70 μl of this solution are added to each well of the Flashplate in order to obtain a final substrate concentration of 1.8 μM during the enzymatic reaction, performed in a final volume of the reaction medium of 100 μl (cf. below). Intermediate dilutions of inhibitors (products of the invention) at various concentrations are prepared in DMSO from stock solutions at 10 mM in separate tubes. 1000 μM, 333.3 μM, 111.1 μM, 37.03 μM, 12.35 μM, 4.11 μM and 1.37 μM dilutions are thus prepared. 1 μl of each of these solutions (or 1 μl of DMSO for the controls) is then transferred into the wells of the test plate. Into each well are then added 19 μl of a solution of a mixture of adenosine triphosphate (ATP) and of ATPy^33P in the kinase buffer at a concentration of 5.26 μM of ATP total and 78.9 μCi/ml of ^33P. The enzymatic reaction is triggered by addition of 10 μl per well of a solution of CDK4/cyclin D1 at 250 nM in the kinase buffer containing 1 mM of dithiothreitol (or 10 μl of kinase buffer containing 1 mM of dithiothreitol for the reaction blanks).
(§1) After addition of all the reagents, the test plate is incubated at 30° C. with orbital stirring at 650 rpm. After the incubation, the plate is washed three times with 300 μl per well of PBS (phosphate-buffered saline, pH=7.4, without calcium or magnesium, reference 10010-015, Gibco BRL). The incorporation of ^33P into the substrate peptide is quantified by scintillation counting using a Packard Topcount.NXT machine. The inhibitory activity of the products of the invention is evaluated by measuring the inhibitory concentration that allows a 50% reduction in the enzymatic activity (IC50).

[2] = tested on: HeLa; assay: HeLa proliferation; format: cell-based; conditions: Homo sapiens, read-out: HeLa proliferation EC50 (nM) DG
[3] = molecular target: CDK2/cyclin E (Homo sapiens, UniProt P24941); assay: CDK2/cyclin E Flashplate test in 96-well format; format: biochemical; conditions: read-out: CDK2 IC50
Protocol: 1. Protocol CDK2/cyclin E:
Purification of the CDK2/cyclin E-(His)6 Complex by IMAC (Immobilized Metal Affinity Chromatography):
Two recombinant baculoviruses bearing the human sequences coding, respectively, for CDK2 and cyclin E (the latter comprising a C-terminal hexahistidine tag) are used to coinfect insect Sf21 cells. Two to three days after the start of coinfection, the cells are harvested by centrifugation and then stored at −40° C. until the time of use. After thawing and mechanical lysis of the cells, the complex present in the lysis supernatant is purified by affinity chromatography on nickel (IMAC), and stored at −80° C.
CDK2/cyclin E Flashplate Test in 96-Well Format
A format in 96-well plates coated with streptavidin is used to test the activity of the compounds on the kinase activity of CDK2/cyclin E.
To perform this test, the biotinylated peptide substrate, a fragment of the pRb protein (biotinyl-[…]-OH) is dissolved at a concentration of 1 mM in kinase buffer (HEPES/NaOH 50 mM, NaCl 1 mM, MgCl2 5 mM, pH 7.5) in order to constitute a stock solution stored at −20° C. in the form of 110 μl aliquots. On the day of the experiment, an aliquot of this solution is thawed and diluted in kinase buffer containing 1 mM of dithiothreitol, and added to the buffer extemporaneously, in order to obtain a concentration of 14.3 μM. 70 μl of this solution are added to each well of the Flashplate in order to obtain a final substrate concentration of 10 μM during the enzymatic reaction, performed in a final volume of the reaction medium of 100 μl (cf. below).
Intermediate dilutions of inhibitors (products of the invention) at various concentrations are prepared in DMSO from stock solutions at 10 mM in separate tubes. 1000 μM, 333.3 μM, 111.1 μM, 37.03 μM, 12.35 μM, 4.11 μM and 1.37 μM dilutions are thus prepared. 1 μl of each of these solutions (or 1 μl of DMSO for the controls) is transferred into the wells of the test plate.
Into each well are then added 19 μl of a solution of a mixture of adenosine triphosphate (ATP) and of ATPy^33P in the kinase buffer at a concentration of 5.26 μM of ATP total and 52.6 μCi/ml of ^33P. The enzymatic reaction is triggered by addition of 10 μl per well of a solution of CDK2/cyclin E at 200 nM in the kinase buffer containing 1 mM of dithiothreitol (or 10 μl of kinase buffer containing 1 mM of dithiothreitol for the reaction blanks).
After addition of all the reagents, the plate is incubated at 30° C. with orbital stirring at 650 rpm.
as §1, with “When” for “After addition of all”, “incubation” for “reagents, the test plate”, “complete,” for “incubated at 30° C. with orbital stirring at 650 rpm. After the incubation,”, “the” for “the substrate”

CDK4/cyclin D1, sequence (P11802 whole entry): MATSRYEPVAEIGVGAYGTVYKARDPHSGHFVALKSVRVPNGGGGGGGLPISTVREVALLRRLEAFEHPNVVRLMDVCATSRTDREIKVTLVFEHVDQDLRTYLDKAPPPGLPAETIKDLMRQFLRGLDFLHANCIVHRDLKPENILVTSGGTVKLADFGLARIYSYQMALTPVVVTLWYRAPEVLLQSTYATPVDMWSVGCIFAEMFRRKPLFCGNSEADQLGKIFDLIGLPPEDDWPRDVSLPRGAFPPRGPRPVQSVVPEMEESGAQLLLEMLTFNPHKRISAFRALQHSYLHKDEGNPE
CDK4/cyclin D1, sequence (P24385 whole entry partner): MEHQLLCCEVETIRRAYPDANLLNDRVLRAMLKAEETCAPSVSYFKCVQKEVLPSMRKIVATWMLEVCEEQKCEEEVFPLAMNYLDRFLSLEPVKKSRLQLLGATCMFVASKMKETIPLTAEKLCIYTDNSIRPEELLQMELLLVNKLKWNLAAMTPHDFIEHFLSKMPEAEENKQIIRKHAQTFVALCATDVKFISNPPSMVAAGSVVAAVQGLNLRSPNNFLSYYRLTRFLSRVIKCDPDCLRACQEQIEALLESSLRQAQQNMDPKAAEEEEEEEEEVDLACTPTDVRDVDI

IC50 [1] [nM]	EC50 [2] [nM]	IC50 [3] [nM]	Structure (SMILES)
424	2170	175	CCC(=O)Nc1nc2ccc(OS(=O)(=O)c3ccc(NCCNC(C)C)cc3)cc2s1 [Example 71, 4-(2-isopropylaminoethylamino)benzenesulfonic acid 2-propionylaminobenzothiazol-6-yl ester; compound with trifluoroacetic]
189	2950	112	CC(C)N(CCNc1ccc(S(=O)(=O)Oc2ccc3nc(NC(=O)CCCCCCN)sc3c2)cc1)C(C)C [Example 52, 4-(2-diisopropylaminoethylamino)benzenesulfonic acid 2-(7-aminoheptanoylamino)benzothiazol-6-yl ester hydrochloride]
70	140	43	CCCC(=O)Nc1nc2ccc(OS(=O)(=O)c3ccc(NCCN(C(C)C)C(C)C)cc3)cc2s1 [Example 79, 4-(2-diisopropylaminoethylamino)benzenesulfonic acid 2-butyrylaminobenzothiazol-6-yl ester hydrochloride]
674	408	57	CCCC(=O)Nc1nc2ccc(OS(=O)(=O)c3ccc(NCC(C)(C)O)cc3)cc2s1 [Example 80, 4-(2-hydroxy-2-methylpropylamino)benzene-sulfonic acid 2-butyrylaminobenzothiazol-6-yl ester hydrochloride]
1220	> 12500	294	COCC(=O)Nc1nc2ccc(OS(=O)(=O)c3ccc(NCCNC(C)C)cc3)cc2s1 [Example 67, 4-(2-isopropylaminoethylamino)benzenesulfonic acid 2-(2-methoxyacetylamino)benzothiazol-6-yl ester]
236	296	75	CC(C)N(CCNc1ccc(S(=O)(=O)Oc2ccc3nc(NC(=O)CCc4cccnc4)sc3c2)cc1)C(C)C [Example 62, 4-(2-diisopropylaminoethylamino)benzenesulfonic acid 2-(3-pyrid-3-ylpropionylamino)benzothiazol-6-yl ester hydrochloride]
1010	179	419	CC(C)NCCNc1ccc(S(=O)(=O)Oc2ccc3nc(NC(=O)C4CCC4)sc3c2)cc1 [Example 77, 4-(2-isopropylaminoethylamino)benzenesulfonic acid (2-cyclobutanecarbonylamino)benzothiazol-6-yl ester; compound with trifluoroacetic acid]
368	8960	161	CC(C)CNc1ccc(S(=O)(=O)Oc2ccc3nc(NC(=O)CCCCCCCN)sc3c2)cc1 [Example 29b, 4-Isobutylaminobenzenesulfonic acid 2-(8-aminooctanoylamino)-benzothiazol-6-yl ester hydro-chloride]
914	1130	299	CC(C)NCCNc1ccc(S(=O)(=O)Oc2ccc3nc(NC(=O)C4CCCC4)sc3c2)cc1 [Example 69, 4-(2-isopropylaminoethylamino)benzenesulfonic acid 2-(cyclopentanecarbonylamino)benzothiazol-6-yl ester]

The next lines start with the molecule.

Structure (SMILES)	IC50 [1] [nM]	EC50 [2] [nM]	IC50 [3] [nM]
CC(C)NCCNc1ccc(S(=O)(=O)Oc2ccc3nc(NC(=O)CCC4CCNCC4)sc3c2)cc1 [Example 24, 4-(2-Isopropylaminoethylamino)benzenesulfonic acid 2-(3-piperid-4-ylpropionylamino)benzothiazol-6-yl ester hydrochloride]	1670	> 12500	864
CC(C)CNc1ccc(S(=O)(=O)Oc2ccc3nc(NC(=O)CCC4CCNCC4)sc3c2)cc1 [Example 29a, 4-Isobutylaminobenzenesulfonic acid 2-(3-piperid-4-ylpropionyl-amino)benzothiazol-6-yl ester hydrochloride]	573	1830	257
CCNCCNc1ccc(S(=O)(=O)Oc2ccc3nc(NC(=O)CCC4CCNCC4)sc3c2)cc1 [Example 25b, 4-(2-Ethylaminoethyl-amino)-benzenesulfonic acid 2-(3-piperid-4-yl-propionyl-amino)-benzo-thiazol-6-yl ester hydrochloride]	4080	9960	5870
O=C(Nc1nc2ccc(OS(=O)(=O)c3ccc(NC4CCCC4)cc3)cc2s1)C1CC1 [Example 8, 4-cyclopentylaminobenzenesulfonic 2-(cyclo-propanecarbonylamino)benzothiazol-6-yl ester]	899	631	86
O=C(Nc1nc2ccc(OS(=O)(=O)c3ccc(F)cc3)cc2s1)C1CC1 [Example 7, 4-fluorobenzenesulfonic acid 2-(cyclopropane-carbonylamino)benzothiazol-6-yl ester]	> 10000	1580	123
CC(C)(O)CNc1ccc(S(=O)(=O)Oc2ccc3nc(NC(=O)CCCCCCCN)sc3c2)cc1 [Example 22d, 4-(2-Hydroxy-2-methyl-propylamino)benzene-sulfonic acid 2-(8-amino-octanoylamino)benzo-thiazol-6-yl ester hydro-chloride]	708	5360	69
O=C(Nc1nc2ccc(OS(=O)(=O)c3ccc(NCCCCn4cnc(-c5cccnc5)c4)cc3)cc2s1)C1CC1 [Example 13, 4-[4-(4-pyrid-3-ylimidazol-1-yl)butylamino]-benzenesulfonic 2-(cyclopropanecarbonylamino)benzothiazol-6-yl ester]	6860	841	678
CC(C)NCCNc1ccc(S(=O)(=O)Oc2ccc3nc(NC(=O)CCCCCCCN)sc3c2)cc1 [Example 21, 4-(2-isopropylaminoethylamino)benzenesulfonic acid 2-(8-aminooctanoylamino)benzothiazol-6-yl ester hydrochloride]	539	2460	227
